Source: PubChem BioAssay (NCI)
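Interpolation was linear, between the two tested concentrations surrounding the appropriate level; five concentrations were tested over 48 hours in 96-well plates. Abbreviation: GI50, concentration required for 50% inhibition of growth. TGI marks complete inhibition of growth.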

Legend:
Experiment in all cases: inhibition of tumour cell growth, NCI panel, 48 h
OVCAR-4 ovarian = tested on: OVCAR-4 ovarian
MOLT-4 leukemia = tested on: MOLT-4 leukemia
SF-539 CNS = tested on: SF-539 CNS
MDA-MB-435 = tested on: MDA-MB-435
OVCAR-8 ovarian = tested on: OVCAR-8 ovarian
UACC-62 melanoma = tested on: UACC-62 melanoma
MDA-MB-231 breast = tested on: MDA-MB-231 breast
COLO 205 colon = tested on: COLO 205 colon
KM12 colon = tested on: KM12 colon
RXF 393 renal = tested on: RXF 393 renal
CAKI-1 renal = tested on: CAKI-1 renal
UO-31 renal = tested on: UO-31 renal
HS 578T breast = tested on: HS 578T breast
HT29 colon = tested on: HT29 colon
NCI-H522 lung = tested on: NCI-H522 lung
SN12C renal = tested on: SN12C renal
DU-145 prostate = tested on: DU-145 prostate
SK-MEL-28 melanoma = tested on: SK-MEL-28 melanoma
CCRF-CEM leukemia = tested on: CCRF-CEM leukemia
U251 CNS = tested on: U251 CNS
MCF7 breast = tested on: MCF7 breast
NCI-H23 lung = tested on: NCI-H23 lung
NCI-H460 lung = tested on: NCI-H460 lung
ACHN renal = tested on: ACHN renal
HOP-62 NSCLC = tested on: HOP-62 NSCLC
SK-MEL-2 melanoma = tested on: SK-MEL-2 melanoma
SK-MEL-5 melanoma = tested on: SK-MEL-5 melanoma
M14 melanoma = tested on: M14 melanoma
IGROV1 ovarian = tested on: IGROV1 ovarian
UACC-257 melanoma = tested on: UACC-257 melanoma
SNB-19 CNS = tested on: SNB-19 CNS
BT-549 breast = tested on: BT-549 breast
EKVX NSCLC = tested on: EKVX NSCLC
K-562 leukemia = tested on: K-562 leukemia
SR leukemia = tested on: SR leukemia
NCI-H226 lung = tested on: NCI-H226 lung
A549 NSCLC = tested on: A549 NSCLC
A498 renal = tested on: A498 renal
T-47D breast = tested on: T-47D breast
HL-60(TB) leukemia = tested on: HL-60(TB) leukemia
PC-3 prostate = tested on: PC-3 prostate
OVCAR-5 ovarian = tested on: OVCAR-5 ovarian
SNB-75 CNS = tested on: SNB-75 CNS
HCC-2998 colon = tested on: HCC-2998 colon
786-0 renal = tested on: 786-0 renal
SF-268 CNS = tested on: SF-268 CNS
HOP-92 NSCLC = tested on: HOP-92 NSCLC
HCT-15 colon = tested on: HCT-15 colon
TK-10 renal = tested on: TK-10 renal
RPMI-8226 leukemia = tested on: RPMI-8226 leukemia
SW-620 colon = tested on: SW-620 colon
NCI/ADR-RES ovarian = tested on: NCI/ADR-RES ovarian
HCT-116 colon = tested on: HCT-116 colon
SF-295 CNS = tested on: SF-295 CNS
MALME-3M melanoma = tested on: MALME-3M melanoma
SK-OV-3 ovarian = tested on: SK-OV-3 ovarian

## O=C(NCCCNc1cc(-c2cn(-c3ccccc3)nc2-c2cccc(O)c2)ccn1)Nc1cccc(C(F)(F)F)c1
OVCAR-4 ovarian
  GI50: 2.13 µM
  TGI: 7.75 µM
MOLT-4 leukemia
  GI50: 1.67 µM
  TGI: 15 µM
SF-539 CNS
  GI50: 2.78 µM
  TGI: 7.18 µM
MDA-MB-435
  GI50: 3.41 µM
  TGI: 7.57 µM
OVCAR-8 ovarian
  GI50: 3.88 µM
  TGI: 10 µM
UACC-62 melanoma
  GI50: 4.41 µM
  TGI: 8.84 µM
MDA-MB-231 breast
  GI50: 2.85 µM
  TGI: 7.76 µM
COLO 205 colon
  GI50: 2.97 µM
  TGI: 8.72 µM
KM12 colon
  GI50: 2.63 µM
  TGI: 7.39 µM
RXF 393 renal
  GI50: 1.08 µM
  TGI: 4.96 µM
CAKI-1 renal
  GI50: 1.9 µM
  TGI: 12.3 µM
UO-31 renal
  GI50: 2.1 µM
  TGI: 10.8 µM
HS 578T breast
  GI50: 1.34 µM
  TGI: 7.74 µM
HT29 colon
  GI50: 1.51 µM
  TGI: 6.19 µM
NCI-H522 lung
  GI50: 5.12 µM
  TGI: 11 µM
SN12C renal
  GI50: 3.65 µM
  TGI: 7.91 µM
DU-145 prostate
  GI50: 4.8 µM
  TGI: 11.9 µM
SK-MEL-28 melanoma
  GI50: 3.48 µM
  TGI: 7.51 µM
CCRF-CEM leukemia
  GI50: 1.71 µM
  TGI: 33.3 µM
U251 CNS
  GI50: 2.57 µM
  TGI: 7.45 µM
MCF7 breast
  GI50: 2.73 µM
  TGI: 9.39 µM
NCI-H23 lung
  GI50: 4.34 µM
  TGI: 9.34 µM
NCI-H460 lung
  GI50: 3.48 µM
  TGI: 8.89 µM
ACHN renal
  GI50: 5.23 µM
  TGI: 15.5 µM
HOP-62 NSCLC
  GI50: 4.09 µM
  TGI: 9.59 µM
SK-MEL-2 melanoma
  GI50: 5.29 µM
  TGI: 11.7 µM
SK-MEL-5 melanoma
  GI50: 3.25 µM
  TGI: 7.16 µM
M14 melanoma
  GI50: 2.18 µM
  TGI: 6.99 µM
IGROV1 ovarian
  GI50: 2.83 µM
  TGI: 7.89 µM
UACC-257 melanoma
  GI50: 4.8 µM
  TGI: 10.1 µM
SNB-19 CNS
  GI50: 3.99 µM
  TGI: 8.97 µM
BT-549 breast
  GI50: 3.26 µM
  TGI: 7.63 µM
EKVX NSCLC
  GI50: 3.5 µM
  TGI: 8.45 µM
K-562 leukemia
  GI50: 1.26 µM
  TGI: 33.3 µM
SR leukemia
  GI50: 1.65 µM
  TGI: 12.8 µM
NCI-H226 lung
  GI50: 4.88 µM
  TGI: 11.5 µM
A549 NSCLC
  GI50: 3.35 µM
  TGI: 11.2 µM
A498 renal
  GI50: 3.17 µM
  TGI: 7.18 µM
T-47D breast
  GI50: 3.42 µM
  TGI: 16.7 µM
HL-60(TB) leukemia
  GI50: 3.42 µM
  TGI: 14.5 µM
PC-3 prostate
  GI50: 1.79 µM
  TGI: 11.2 µM
OVCAR-5 ovarian
  GI50: 3.96 µM
  TGI: 9.71 µM
SNB-75 CNS
  GI50: 0.743 µM
  TGI: 4.1 µM
HCC-2998 colon
  GI50: 1.26 µM
  TGI: 4.34 µM
786-0 renal
  GI50: 1.07 µM
  TGI: 3.71 µM
SF-268 CNS
  GI50: 3.26 µM
  TGI: 9.69 µM
HOP-92 NSCLC
  GI50: 1.25 µM
  TGI: 6.01 µM
HCT-15 colon
  GI50: 1.06 µM
  TGI: 4.32 µM
TK-10 renal
  GI50: 5.75 µM
  TGI: 13.2 µM
RPMI-8226 leukemia
  GI50: 0.727 µM
  TGI: 6.12 µM
SW-620 colon
  GI50: 3.85 µM
  TGI: 8.31 µM
NCI/ADR-RES ovarian
  GI50: 4.9 µM
  TGI: 12.8 µM
HCT-116 colon
  GI50: 1.97 µM
  TGI: 6.33 µM
SF-295 CNS
  GI50: 1.76 µM
  TGI: 6.42 µM
MALME-3M melanoma
  GI50: 1.54 µM
  TGI: 6.08 µM
SK-OV-3 ovarian
  GI50: 4.49 µM
  TGI: 10.1 µM
